Source: PubChem BioAssay (NCI)
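Cultured in 96-well plates, cells were exposed to test compound for 48 hours across five concentrations. The concentration for 50% growth inhibition is given as GI50. Definition used: TGI = concentration required for complete inhibition of growth.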

Tests used:
Experiment in all cases: NCI-60 cell line screen, 48 h
MCF7 breast = tested on: MCF7 breast
KM12 colon = tested on: KM12 colon
SK-MEL-2 melanoma = tested on: SK-MEL-2 melanoma
OVCAR-8 ovarian = tested on: OVCAR-8 ovarian
PC-3 prostate = tested on: PC-3 prostate
RXF 393 renal = tested on: RXF 393 renal
NCI-H460 lung = tested on: NCI-H460 lung
OVCAR-3 ovarian = tested on: OVCAR-3 ovarian
MDA-MB-435 = tested on: MDA-MB-435
NCI-H23 lung = tested on: NCI-H23 lung

## COc1ccc(Nc2nc3cc(N)cc(N)c3nc2-c2ccccc2)cc1
MCF7 breast
  GI50: 14.9 µM
  TGI: 28.1 µM
KM12 colon
  GI50: 15.9 µM
  TGI: 30.9 µM
SK-MEL-2 melanoma
  GI50: 15.6 µM
  TGI: 31.4 µM
OVCAR-8 ovarian
  GI50: 13.9 µM
  TGI: 30.6 µM
PC-3 prostate
  GI50: 20.9 µM
  TGI: 47.6 µM
RXF 393 renal
  GI50: 10.9 µM
  TGI: 24.2 µM
NCI-H460 lung
  GI50: 26.8 µM
  TGI: 89.9 µM
OVCAR-3 ovarian
  GI50: 17.3 µM
  TGI: 37.3 µM
MDA-MB-435
  GI50: 16.5 µM
  TGI: 30.1 µM
NCI-H23 lung
  GI50: 12.5 µM
  TGI: 25.3 µM

## Oc1c(Cl)cc(Cl)c(Cl)c1CNCCNCc1c(O)c(Cl)cc(Cl)c1Cl
MCF7 breast
  GI50: 1.12 µM
  TGI: 14.5 µM
KM12 colon
  GI50: 0.963 µM
  TGI: 8 µM
SK-MEL-2 melanoma
  GI50: 3.4 µM
  TGI: 14.1 µM
OVCAR-8 ovarian
  GI50: 0.911 µM
  TGI: 7.72 µM
PC-3 prostate
  GI50: 1.92 µM
  TGI: 11.1 µM
RXF 393 renal
  GI50: 1.41 µM
  TGI: 6.74 µM
NCI-H460 lung
  GI50: 0.44 µM
  TGI: 7.52 µM
OVCAR-3 ovarian
  GI50: 0.502 µM
  TGI: 7.08 µM
MDA-MB-435
  GI50: 1.58 µM
  TGI: 9.87 µM
NCI-H23 lung
  GI50: 1.42 µM
  TGI: 9.08 µM

## COc1cc2c(cc1OC(C)C)[C@H](c1ccc(Cl)cc1)N(c1ccc(N(C)CC3CCC(N4CCN(C)C(=O)C4)CC3)cc1)C(=O)C2 (stereo not given in full)
MCF7 breast
  GI50: 0.271 µM
  TGI: 3.61 µM
KM12 colon
  GI50: 3.13 µM
  TGI: 9.11 µM
SK-MEL-2 melanoma
  GI50: 5.87 µM
  TGI: 12.1 µM
OVCAR-8 ovarian
  GI50: 5.86 µM
  TGI: 20.3 µM
PC-3 prostate
  GI50: 1.98 µM
  TGI: 5.51 µM
RXF 393 renal
  GI50: 2.66 µM
  TGI: 7.92 µM
NCI-H460 lung
  GI50: 0.531 µM
  TGI: 4.43 µM
OVCAR-3 ovarian
  GI50: 2.6 µM
  TGI: 7.07 µM
MDA-MB-435
  GI50: 2.47 µM
  TGI: 6.93 µM
NCI-H23 lung
  GI50: 3.34 µM
  TGI: 13.2 µM

## COc1ccc(C(=O)C(CN(C)C)CN(C)C)cc1
MCF7 breast
  GI50: 2.73 µM
  TGI: 12.3 µM
KM12 colon
  GI50: 11.9 µM
  TGI: 27.3 µM
SK-MEL-2 melanoma
  GI50: 16.7 µM
  TGI: 36.8 µM
OVCAR-8 ovarian
  GI50: 3.14 µM
  TGI: 22.4 µM
PC-3 prostate
  GI50: 13.2 µM
  TGI: 29.9 µM
RXF 393 renal
  GI50: 1.55 µM
  TGI: 3.8 µM
NCI-H460 lung
  GI50: 19.2 µM
  TGI: 40.1 µM
OVCAR-3 ovarian
  GI50: 1.29 µM
  TGI: 2.57 µM
MDA-MB-435
  GI50: 2.84 µM
  TGI: 8.58 µM
NCI-H23 lung
  GI50: 14.2 µM
  TGI: 41 µM

## O=C(O)CCNCC(=O)O
MCF7 breast
  TGI: > 100 µM
KM12 colon
  TGI: > 100 µM
SK-MEL-2 melanoma
  TGI: > 100 µM
OVCAR-8 ovarian
  TGI: > 100 µM
PC-3 prostate
  TGI: > 100 µM
RXF 393 renal
  TGI: > 100 µM
NCI-H460 lung
  TGI: > 100 µM
OVCAR-3 ovarian
  TGI: > 100 µM
MDA-MB-435
  TGI: > 100 µM
NCI-H23 lung
  TGI: > 100 µM

## Cc1onc(-c2ccccc2)c1C(=O)N/N=C/c1cc(Cl)cc(Cl)c1O
MCF7 breast
  GI50: 3.18 µM
  TGI: > 100 µM
KM12 colon
  GI50: 5.54 µM
  TGI: > 100 µM
SK-MEL-2 melanoma
  GI50: 11.5 µM
  TGI: 56 µM
OVCAR-8 ovarian
  GI50: 3.59 µM
  TGI: > 100 µM
PC-3 prostate
  GI50: 3.93 µM
  TGI: 32.6 µM
RXF 393 renal
  GI50: 7.72 µM
  TGI: > 100 µM
NCI-H460 lung
  GI50: 3.6 µM
  TGI: > 100 µM
OVCAR-3 ovarian
  GI50: 3.82 µM
  TGI: 26.6 µM
MDA-MB-435
  GI50: 6.39 µM
  TGI: > 100 µM
NCI-H23 lung
  GI50: 10.6 µM
  TGI: 67.9 µM

## CN(Cc1ccccc1)Cn1ccnc1
MCF7 breast
  TGI: > 100 µM
KM12 colon
  TGI: > 100 µM
SK-MEL-2 melanoma
  TGI: > 100 µM
OVCAR-8 ovarian
  TGI: > 100 µM
PC-3 prostate
  TGI: > 100 µM
RXF 393 renal
  TGI: > 100 µM
NCI-H460 lung
  TGI: > 80.6 µM
OVCAR-3 ovarian
  TGI: > 100 µM
MDA-MB-435
  TGI: > 100 µM
NCI-H23 lung
  TGI: > 100 µM

## O=C1N[C@@H]2[C@@H](O)[C@@H](O)[C@H](O)C[C@H]2c2cc3c(c(O)c21)OCCO3
MCF7 breast
  GI50: 0.154 µM
  TGI: 0.796 µM
KM12 colon
  GI50: 0.169 µM
  TGI: 1.1 µM
SK-MEL-2 melanoma
  GI50: 0.286 µM
  TGI: 1.06 µM
OVCAR-8 ovarian
  GI50: 0.287 µM
  TGI: 3.21 µM
PC-3 prostate
  GI50: 0.293 µM
  TGI: 2.54 µM
RXF 393 renal
  GI50: 0.264 µM
  TGI: 1.11 µM
NCI-H460 lung
  GI50: 0.157 µM
  TGI: 1.13 µM
OVCAR-3 ovarian
  GI50: 0.276 µM
  TGI: 1.01 µM
MDA-MB-435
  GI50: 0.269 µM
  TGI: 1.22 µM
NCI-H23 lung
  GI50: 0.238 µM
  TGI: 0.915 µM

## NS(=O)(=O)OC[C@H]1C[C@@H](Nc2ccnc3cc(-c4cccc(SC(F)(F)F)c4)nn23)[C@H](O)[C@@H]1O
MCF7 breast
  GI50: 0.0214 µM
  TGI: 0.173 µM
KM12 colon
  GI50: 0.0991 µM
  TGI: 0.368 µM
SK-MEL-2 melanoma
  GI50: 0.0316 µM
  TGI: 0.118 µM
OVCAR-8 ovarian
  GI50: 0.0216 µM
  TGI: 0.0682 µM
PC-3 prostate
  GI50: 0.0378 µM
  TGI: 0.367 µM
RXF 393 renal
  GI50: 0.0199 µM
  TGI: 0.0436 µM
NCI-H460 lung
  GI50: 0.259 µM
  TGI: 0.679 µM
OVCAR-3 ovarian
  GI50: < 0.0166 µM
  TGI: 0.034 µM
MDA-MB-435
  GI50: 0.035 µM
  TGI: 0.144 µM
NCI-H23 lung
  GI50: 0.0338 µM
  TGI: 0.13 µM

## O=C(CN(/C=C/C(=O)C(F)(F)F)c1ccc(Cl)cc1)c1ccc(Cl)cc1
MCF7 breast
  GI50: 5.15 µM
  TGI: 29.8 µM
KM12 colon
  GI50: 3.59 µM
  TGI: 20.8 µM
SK-MEL-2 melanoma
  GI50: 3.88 µM
  TGI: 14.4 µM
OVCAR-8 ovarian
  GI50: 10.8 µM
  TGI: 26.9 µM
PC-3 prostate
  GI50: 12.9 µM
  TGI: 26.5 µM
RXF 393 renal
  GI50: 10.2 µM
  TGI: 35.9 µM
NCI-H460 lung
  GI50: 11.9 µM
  TGI: 35.3 µM
OVCAR-3 ovarian
  GI50: 4.52 µM
  TGI: 17.3 µM
MDA-MB-435
  GI50: 7.83 µM
  TGI: 29 µM
NCI-H23 lung
  GI50: 6.3 µM
  TGI: 20.9 µM
